These results are taken from BindingDB's records for doi:10.1016/j.bmcl.2013.05.020 (Vanderbilt University Medical Center, 2013).

One may read the IC50 as the concentration needed to halve the response being measured.

SMILES strings stand for the structures.

Chain of Metabotropic glutamate receptor 1 (Q13255 whole entry): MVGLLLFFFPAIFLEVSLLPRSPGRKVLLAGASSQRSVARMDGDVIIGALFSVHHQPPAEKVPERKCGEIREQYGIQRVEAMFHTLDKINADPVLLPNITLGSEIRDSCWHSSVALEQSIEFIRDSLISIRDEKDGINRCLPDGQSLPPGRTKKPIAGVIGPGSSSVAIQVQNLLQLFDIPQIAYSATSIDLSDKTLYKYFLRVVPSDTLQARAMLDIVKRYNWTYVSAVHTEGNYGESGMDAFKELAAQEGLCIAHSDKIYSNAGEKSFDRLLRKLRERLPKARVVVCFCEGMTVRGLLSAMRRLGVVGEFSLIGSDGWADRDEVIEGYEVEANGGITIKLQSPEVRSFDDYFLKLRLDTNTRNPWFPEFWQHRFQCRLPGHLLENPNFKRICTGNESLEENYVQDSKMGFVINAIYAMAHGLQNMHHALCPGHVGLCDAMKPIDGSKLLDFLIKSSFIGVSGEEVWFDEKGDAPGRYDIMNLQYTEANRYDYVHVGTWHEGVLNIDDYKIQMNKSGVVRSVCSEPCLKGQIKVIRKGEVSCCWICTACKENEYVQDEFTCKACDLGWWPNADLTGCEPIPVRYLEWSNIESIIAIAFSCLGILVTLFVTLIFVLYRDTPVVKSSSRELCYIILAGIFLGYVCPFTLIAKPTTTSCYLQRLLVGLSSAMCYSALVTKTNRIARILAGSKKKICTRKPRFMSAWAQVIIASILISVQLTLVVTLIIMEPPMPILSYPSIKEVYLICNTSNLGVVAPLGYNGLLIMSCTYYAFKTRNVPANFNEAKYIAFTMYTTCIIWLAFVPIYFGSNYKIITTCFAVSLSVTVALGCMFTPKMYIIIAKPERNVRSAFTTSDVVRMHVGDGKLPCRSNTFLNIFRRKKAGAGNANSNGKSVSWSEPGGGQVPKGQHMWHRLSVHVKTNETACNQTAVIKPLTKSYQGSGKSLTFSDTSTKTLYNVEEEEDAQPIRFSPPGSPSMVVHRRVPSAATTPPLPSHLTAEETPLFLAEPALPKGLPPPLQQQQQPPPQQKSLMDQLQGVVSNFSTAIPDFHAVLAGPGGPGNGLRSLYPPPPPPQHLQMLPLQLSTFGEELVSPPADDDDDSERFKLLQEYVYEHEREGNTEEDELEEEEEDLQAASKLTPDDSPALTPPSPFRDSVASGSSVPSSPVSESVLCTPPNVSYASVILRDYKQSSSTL

The assay addresses Metabotropic glutamate receptor 1 (Homo sapiens, UniProt Q13255). The experiment in a line: Negative allosteric modulation of human mGluR1 expressed in HEK293A cells assessed as inhibition of glutamate-induced calcium mobilization. In general terms: Calcium flux is commonly read through the fluorescence of an indicator in the cells.
For `C[C@@H]1CN(c2ccccn2)CCN1C(=O)C1CC1`, the IC50 was > 31.6 µM. Next, `C[C@@H]1CN(C(=O)C(C)(C)C)CCN1c1ccccn1`: > 31.6 µM. In the case of `C[C@@H]1CN(C(=O)C23C4C5C6C4C2C6C53)CCN1c1ccccn1` (stereo partly drawn), the IC50 was > 31.6 µM. Next, `C[C@@H]1CN(C(=O)[C@H]2CC[C@H](C)CC2)CCN1c1ccccn1`: > 31.6 µM; `C[C@@H]1CN(C(=O)C2CC2)CCN1c1ccccn1`: > 31.6 µM.

As for `C[C@@H]1CN(C(=O)C23CC4CC(CC(C4)C2)C3)CCN1c1ccncc1`, the IC50 was > 31.6 µM.

Take `C[C@@H]1CN(C(=O)C2CCCCC2)CCN1c1ccccn1`: the IC50 was > 31.6 µM. For `C[C@@H]1CN(c2ccccn2)CCN1C(=O)C(C)(C)C` the value was > 31.6 µM.
